Data reported in patent publication US20250179024A1, “AMYLOID AND ASSOCIATED PATHOLOGY MODULATORS AND METHODS THEREOF” (Jawaharlal Nehru Centre for Advanced Scientific Research, priority 2022, published 2025).

Columns and labels:
[1] = target: T1, Aβ oligomers (Homo sapiens, UniProt P05067); test: Dot blot assay of Aβ oligomer inhibition (A11 antibody); assay type: biochemical; settings: Aβ 10 μM, NMIs 20 μM, 4° C., 24 h
T1 construct: is a 42 amino acid proteolytic product from the amyloid precursor protein; purchased Invitrogen
Protocol: Aggregation modulation by toxic Aβ aggregates were assessed and were quantified by dot blot assay. Aβ peptide (10 μM) was dissolved in phosphate buffered saline (PBS, 10 mM, pH 7.4), incubated alone and with NMIs (20 μM) at 37° C. for 48 h. For concentration dependent inhibition, 10 μM Aβ peptide was incubated with 1, 2, 5, 10 and 20 μM of NMIs and incubated. Samples for oligomer inhibition studies were prepared by incubating Aβ alone and with NMIs at 4° C. for 24 and subjected to dot blot analysis. For dissolution studies, Aβ peptide alone was incubated in PBS for 48 h to prepare fibrils and then incubated with NMIs further for 48 h. For dot blot experiment, 5 μL of sample was blotted on activated PVDF (polyvinylidene fluoride) membrane in triplicates and air dried. The membrane was blocked with skimmed milk powder for 1 h at room temperature. The blot paper was washed with tris-buffered saline with 0.01% Tween 20 (TBST) three times for 5 min. Blot paper was treated with fibril specific OC primary antibody (Rabbit, 1:1000 dilution) overnight at 4° C. For oligomers blot A11 anti-oligomer antibody (Rabbit 1:1000) was used. […] Blots were analyzed and quantified by ImageJ software. […] The ability of NMIs (M3) to inhibit the formation of Aβ oligomers was assessed by dot blot assay. […]

[2] = system: SH-SY5Y cells; test: MTT cytotoxicity assay; assay type: cell-based; settings: 24 h, up to 200 μM
Protocol: The SH-SY5Y cells were seeded onto 96 well plates at cell density of 25,000 cells per well and incubated. After 24 h cells were treated with different concentration of compounds (10, 20, 50, 100 and 200 μM) and incubated. After 24 h MTT (5 mg/mL) was added to the cells and incubated for 3 h, removed media and DMSO/Methanol (1:1) solution added to dissolve formazan crystals. The absorbance was recorded at 570 nm and the percentage cell viability was calculated with respect to control cells treated with vehicle (DMSO).
NMIs modulated metal-independent and dependent Aβ aggregation, reduced ROS in vitro and in cellulo, and rescue cells from oxidative stress. The biocompatibility, the cytotoxicity of compounds of the present disclosure to neuronal cells were evaluated by MTT assay. SH-SY5Y cells were treated with different concentrations of modulators (NMIs) for 24 h and performed MTT assay to determine the cell viability.

[3] = system: Nrf2; test: Nrf2 localisation by indirect immunofluorescence; assay type: cell-based; settings: Aβ treated SH-SY5Y cells
Protocol: Cells were cultured in confocal dishes up to 70% confluence and then treated with Aβ alone and with NMIs (M3), and subjected to immunofluorescence. The cells were washed twice with dPBS and then fixed with 4% paraformaldehyde for 15 min. The cells were then washed twice with dPBS for 5 min followed by treatment with permeabilization buffer (dPBS with 0.1% Triton X-100) for 10 min. The permeabilization buffer was aspirated and rinses with dPBS twice for 5 min. The samples were blocked with 10% goat serum in dPBS for 30 min at room temperature. The blocking solution was aspirated and then was treated with primary antibody (Nrf2/Iba1) with desired dilution in 4° C. with gentle shaking overnight. The samples were then washed with dPBS thrice for 5 min each and treated with Alexa Fluor-488 conjugated secondary antibody for 1 h in room temperature. The cells were washed with dPBS thrice and counterstain with DAPI (1 μM) for 10 min and imaged using confocal microscope.
M3 with in vitro antioxidant activity and in cellulo ROS quenching effect was expected to alleviate oxidative stress and modulate Nrf2 response. The effect of M3 on Nrf2 localisation in Aβ treated SH-SY5Y cells were assessed by indirect immunofluorescence staining study. […]

T1 sequence (P05067 672-713 limits assumed): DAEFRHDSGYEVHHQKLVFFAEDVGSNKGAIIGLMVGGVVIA

| Structure (SMILES) | oligomer inhibition [1] [%] | cytotoxicity [2] | translocation of Nrf2 to the nucleus [3] |
| --- | --- | --- | --- |
| CN(C)c1ccc2c3c(cccc13)C(=O)N(CCc1ccc(O)c(O)c1)C2=O [M1, 2-(3,4-dihydroxyphenethyl)-6-(dimethylamino)-1H-benzo[de]isoquinoline-1,3(2H)-dione] | 33 |  |  |
| O=C1c2cccc3c(N(Cc4ccccn4)Cc4ccccn4)ccc(c23)C(=O)N1CCc1ccc(O)c(O)c1 [M3, 6-(bis(pyridin-2-ylmethyl)amino)-2-(3,4-dihydroxyphenethyl)-1H-benzo[de]isoquinoline-1,3(2H)-dione] |  | minimal toxicity | reduced the translocation of Nrf2 to the nucleus |
